Assay results: patent US20180161314A1, “Methods for Treating Hyperuricemia and Related Diseases” (Ardea Biosciences, Inc., priority 2010, published 2018)
Read-outs that look alike come from different tables or passages of the source.

Columns and labels:
[1] = system: hyperuricemic subjects with symptomatic gout; experiment: Pilot study of drug 1 versus placebo and open-label allopurinol in hyperuricemic subjects with symptomatic gout (Examples 1, 2, 20); assay type: in vivo, human
Procedure: Study Objectives • To compare the proportion of subjects whose sUA level is <6.0 mg/dL following 2 weeks of continuous treatment with drug 1 compared to allopurinol and placebo. • To evaluate the percent reduction from baseline in sUA levels following 2 weeks of continuous treatment with drug 1 in combination with allopurinol. • To evaluate the proportion of subjects whose sUA levels are <6.0 mg/dL, <5.0 mg/dL and <4.0 mg/dL at each visit. • To evaluate the absolute and percent reduction from baseline in sUA levels at each visit. • To evaluate the maximum percent reduction in sUA levels from baseline during the entire treatment period. • To evaluate percent change in 24-hour urine uric acid level from baseline to Day 15. • To evaluate the safety and tolerability of drug 1 in subjects with gout. • To evaluate the pharmacokinetics, safety and tolerability of drug 1 in combination with allopurinol in subjects with gout.
A randomized, double-blind, placebo-controlled, dose titration, safety and pharmacodynamics pilot study, in approximately 26 hyperuricemic subjects with symptomatic gout enrolled at 2-3 investigational sites in N America, of: • drug 1 versus placebo and open-label allopurinol (Cohort 1); and • drug 1 in combination with allopurinol versus continued allopurinol alone (Cohort 2)
Subjects are randomized 7 days prior to Day 1 in a double-blind fashion to receive drug 1, drug 1 matching placebo, or open-label allopurinol (Cohort 1) or drug 1 or drug 1 matching placebo in combination with allopurinol (Cohort 2).
To reduce the incidence of gout flares, colchicine 0.6 mg qd is administered to all subjects starting 14 days prior to the Baseline (Day 1) visit. Subjects continue colchicine administration throughout the Treatment Period, discontinuing at the End of Study visit (one week after the last dose of study medication).
Cohort 1 approx 20 subjects randomized in 2:1:1 ratio treatment groups—drug 1:placebo:allopurinol.
Subjects randomized to double-blind treatment: • approx 10 subjects randomized to receive drug 1 200 mg qd (4 drug 1 50 mg capsules/day) for one week, followed by drug 1 400 mg qd (8 drug 1 50 mg capsules/day) for one week. • 5 subjects randomized to receive drug 1 matching placebo qd for 2 weeks (week 1-4 drug 1 matching placebo capsules; week 2-8 drug 1 matching placebo capsules)
Subjects randomized to open-label treatment: • 5 subjects randomized to receive allopurinol 300 mg tablets qd for 2 weeks Cohort 2 approx 6 subjects randomized in 5:1 ratio treatment groups—drug+allopurinol:placebo+allopurinol
For Cohorts 1 and 2, subjects randomized to double-blind treatment take drug 1 or drug 1 matching placebo every 24 hours (±1 h) (morning dose) for a period of 2 weeks. For Cohort 1, subjects randomized to open-label treatment take allopurinol every 24 hours (±1 h) (morning dose) for a period of 2 weeks.
Subjects are requested to then drink approximately 240 mL of water 1-2 hours after dosing.
1. Male or post-menopausal or surgically sterile female. 2. 18-75 years of age. 3. Hyperuricemic, defined as: Cohort 1: Screening serum uric acid is ≥8 mg/dL Cohort 2: Screening serum uric acid is ≥10 mg/dL 4. Subject meets one or more of the 1977 American Rheumatism Association (ARA) criteria for the diagnosis of acute arthritis of primary gout. 5. Subject is willing and able to give informed consent and adhere to visit/protocol schedules.
Blood samples (4.5 mL) are collected and sUA levels determined at Screening (repeated as necessary prior to Day 1), Baseline (Day 1) (1 hour and 8 hours post-dose), Day 8 (trough, 1 hour and 8 hours post-dose), Day 9 (24 hours after Day 8 dose), and Day 14 (trough and 8 hours post-dose), Day 15 and End of Study. An additional sUA level is obtained on Day 7 for Cohort 2 subjects prior to the first dose of allopurinol.
Primary pharmacodynamics parameter is the proportion of subjects with serum uric acid <6.0 mg/dL following 2 weeks of treatment. […]

[2] = system: gout patients with hyperuricemia; assay type: in vivo; details: for Mean absolute sUA reduction / Mean sUA % change / Mean sUA level: ± SE; for % Response rate for sUA falling below 4 mg/dL / % Response rate for sUA falling below 5 mg/dL / % Response rate for sUA falling below 6 mg/dL: allopurinol 300 mg
Procedure: Study Objectives • To measure the effect of drug 1, alone and in combination with allopurinol, on serum urate concentration. • To evaluate the safety and tolerability of drug 1 in combination with allopurinol.
The study is open-label in gout patients with hyperuricemia, involving 2 panels of ˜10-12 patients per panel. The panels may be enrolled simultaneously.
Panel 1 receives a once-daily dose of allopurinol 300 mg alone for 7 days and for an additional 7 days in combination with a once-daily dose of drug 1 400 mg. Patients then receive 7 days of a once-daily dose of drug 1 400 mg alone. Panel 2 follows the same regimen as panel 1, at doses of allopurinol 300 mg and drug 1 600 mg.
• Day −10 to Day 28: colchicine prophylaxis; or • Day −7 to Day 28: colchicine prophylaxis (for patients not washing out from ULT) • Days 1-7: allopurinol 300 mg qd • Days 8-14: drug 1 400 mg qd+allopurinol 300 mg qd • Days 15-21: drug 1 400 mg qd
• Day −10 to Day 28: colchicine prophylaxis; or • Day −7 to Day 28: colchicine prophylaxis (for patients not washing out from ULT) • Days 1-7: allopurinol 300 mg qd • Days 8-14: drug 1 600 mg qd+allopurinol 300 mg qd • Days 15-21: drug 1 600 mg qd
Gout patients on a urate lowering therapy (ULT), have previously taken a ULT or who have never taken a ULT are eligible to participate. Screening procedures to determine patient eligibility are performed within approximately 14 days of the first dose of study drug (Day 1). Subjects currently on ULT wash-out for at least 10 days before Day 1, and begin colchicine (Colcry® 0.6 mg qd, URL Pharma) as prophylaxis for gout flares at the beginning of the wash-out period. Subjects not on ULT begin colchicine administration at least 7 days prior to Day 1. Patients intolerant of colchicine during the screening period are considered screen failures and not enrolled. Prophylactic administration of colchicine continues for 7 days after the last dose of study medication.
Eligible patients report to the study center early morning on Days −1, 7, 14, and 21 (or the afternoon/evening the day before). Serial blood samples are collected on Days −1, 7, 14, and 21. Study medication is administered to each patient and taken orally every morning with approximately 240 mL of water, at approximately the same time of the morning every day, and approximately 30 minutes after finishing a full breakfast (approximately 650 Kcal and 35% fat); the breakfast is standardized on Days −1 to 21.
Inclusion Criteria • Patient is male or post-menopausal or surgically sterile female. • Patient is 18-80 years of age. • Patient meets one or more criteria for the diagnosis of gout as per the American Rheumatism Association (ARA) Criteria for the Classification of Acute Arthritis of Primary Gout (Appendix B). • Patient sUA≥8 mg/dL at screening. • Patient willing and able to give informed consent and adhere to visit/protocol schedules • No clinically relevant abnormalities in blood pressure (BP), heart rate (HR), body temperature and respiratory rate as per Investigator's judgment.
Subject urate serum levels are recorded, and any safety concerns assessed (by adverse events, clinical laboratory test results, vital signs, 12-lead ECGs, and physical examinations). […] Urate serum concentrations are evaluated for treatment- and/or time-dependent changes relative to baseline (Day −1), and may be expressed both in standard units (mg/dL) and as changes from baseline (e.g., percent change, absolute change, maximal change, and time or day of maximal change).
Drug 1 was tested according to the protocol described in Example 21.
Serum urate levels were measured and absolute and % reduction levels from baseline calculated, for Allopurinol monotherapy, Drug 1 monotherapy and Allopurinol plus Drug 1 combination.

[3] = Drug 1 400 mg panel: allopurinol 300 mg qd days 1-7, combination days 8-14, drug 1 400 mg qd alone days 15-21
[4] = Drug 1 600 mg panel: allopurinol 300 mg qd days 1-7, combination days 8-14, drug 1 600 mg qd alone days 15-21

## Oc1ncnc2[nH]ncc12 [Allopurinol, 1H-pyrazolo[3,4-d]pyrimidin-4(2H)-one, reference compound]
[1]; Cohort 1, Day 14, responders/subjects, drug 1 200 mg qd 1 week then 400 mg qd 1 week, allopurinol 300 mg qd 2 weeks
  Responders Day 14 (those with sUA <6 mg/dL): 5/5
[1]; one subject on allopurinol 300 mg qd
  Adverse event: hyperaldosteronemia
[2]; [3]
  Mean absolute sUA reduction: -3.1 ± 0.28 mg/dL
  Mean sUA % change: −32.2 ± 2.1%
  Mean sUA level: 6.5 ± 0.16 mg/dL
[2]; Drug 1 400 mg panel
  % Response rate for sUA falling below 4 mg/dL: 0%
  % Response rate for sUA falling below 5 mg/dL: 0%
  % Response rate for sUA falling below 6 mg/dL: 10%
[2]; [4]
  Mean absolute sUA reduction: -2.6 ± 0.26 mg/dL
  Mean sUA % change: −28.7 ± 2.4%
  Mean sUA level: 6.3 ± 0.31 mg/dL
[2]; Drug 1 600 mg panel
  % Response rate for sUA falling below 4 mg/dL: 0%
  % Response rate for sUA falling below 5 mg/dL: 10%
  % Response rate for sUA falling below 6 mg/dL: 30%
